{"source": "patent US9138479B2", "about": "“Formulations for the treatment of diabetes” (XERIS PHARMACEUTICALS, INC., priority 2011, dated 2015)", "assay": "Pramlintide solubility in DMSO and DMSO-water co-solvents (visual inspection)", "format": "physicochemical", "conditions": "pH memory 2.0; 20 mg/mL in neat DMSO", "description": "• 3b. […] The resulting solutions are assessed visually for clarity and/or analyzed for light scattering using visible spectroscopy at […], and used in various downstream applications.\nSolutions of pramlintide were prepared at a concentration of 2 mg/mL in 10 mM citrate, pH 2.0, or 10 mM citrate, pH 4.0, each with or without 2 mg/mL trehalose. The solutions were dried by centrifugation under vacuum for approximately 3.5 hours at 25-30° C., or lyophilized as described above."}
{"smiles": "CC[C@H](C)[C@H](NC(=O)[C@@H]1CCCN1C(=O)CNC(=O)[C@H](Cc1ccccc1)NC(=O)[C@H](CC(N)=O)NC(=O)[C@H](CC(N)=O)NC(=O)[C@H](CO)NC(=O)[C@H](CO)NC(=O)[C@H](Cc1c[nH]cn1)NC(=O)[C@@H](NC(=O)[C@H](CC(C)C)NC(=O)[C@H](Cc1ccccc1)NC(=O)[C@H](CC(N)=O)NC(=O)[C@H](C)NC(=O)[C@H](CC(C)C)NC(=O)[C@H](CCCNC(=N)N)NC(=O)[C@H](CCC(N)=O)NC(=O)[C@@H](NC(=O)[C@H](C)NC(=O)[C@@H]1CSSC[C@H](NC(=O)[C@@H](N)CCCCN)C(=O)N[C@@H](CC(N)=O)C(=O)N[C@@H]([C@@H](C)O)C(=O)N[C@@H](C)C(=O)N[C@@H]([C@@H](C)O)C(=O)N1)[C@@H](C)O)C(C)C)C(=O)N[C@@H](CC(C)C)C(=O)N1CCC[C@H]1C(=O)N1CCC[C@H]1C(=O)N[C@H](C(=O)N[C@@H](CC(N)=O)C(=O)N[C@H](C(=O)NCC(=O)N[C@@H](CO)C(=O)N[C@@H](CC(N)=O)C(=O)N[C@H](C(=O)N[C@@H](Cc1ccc(O)cc1)C(N)=O)[C@@H](C)O)C(C)C)[C@@H](C)O", "note": "[pramlintide]", "values": [{"measurement": "appearance of solution by visual inspection", "result": "flowable and completely clear"}]}
